Data: patent US20100298141A1, “SUBSTITUTED PYRIDINE N-OXIDE HERBICIDES” (E. I. DU PONT DE NEMOURS AND COMPANY, priority 2007, published 2010)

Key:
crabgrass = experiment: Test A pre-/postemergence greenhouse test; assay type: in vivo, Digitaria sanguinalis; settings: for Crabgrass, Large plant response rating: 0 to 100 scale; for Plant response rating, Crabgrass, Large: 0 to 100 scale where 0 is no effect and 100 is complete control
How it was run: (§1)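 Each test compound, dissolved in a non-phytotoxic solvent mixture with surfactant, was sprayed directly onto seeded soil (loam/sand blend) and, at the same moment, onto seedlings carrying one to two leaves. Around ten greenhouse days later, plants were rated visually for injury relative to untreated controls.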

morningglory = experiment: Test A pre-/postemergence greenhouse test; assay type: in vivo, Ipomoea spp.; settings: for Morningglory plant response rating: 0 to 100 scale; for Plant response rating, Morningglory: 0 to 100 scale where 0 is no effect and 100 is complete control
How it was run: as §1

redroot pigweed = experiment: Test A pre-/postemergence greenhouse test; assay type: in vivo, Amaranthus retroflexus; settings: for Pigweed plant response rating: 0 to 100 scale; for Plant response rating, Pigweed: 0 to 100 scale where 0 is no effect and 100 is complete control
How it was run: as §1

blackgrass = experiment: Test C pre-/postemergence test; assay type: in vivo, Alopecurus myosuroides
How it was run: (§2)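 Seeds were planted and treated preemergence with test chemical in a non-phytotoxic solvent mixture containing surfactant. Postemergence applications of the same formulation went onto plants 2 to 18 cm tall (1- to 4-leaf stage). A dash marks no test result.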

green foxtail = experiment: Test C pre-/postemergence test; assay type: in vivo, Setaria viridis
How it was run: as §2

Italian ryegrass = experiment: Test C pre-/postemergence test; assay type: in vivo, Lolium multiflorum
How it was run: as §2

wheat = experiment: Test C pre-/postemergence test; assay type: in vivo, Triticum aestivum
How it was run: as §2

wild oat = experiment: Test C pre-/postemergence test; assay type: in vivo, Avena fatua
How it was run: as §2

corn = experiment: Test C pre-/postemergence test; assay type: in vivo, Zea mays
How it was run: as §2

woolly cupgrass = experiment: Test C pre-/postemergence test; assay type: in vivo, Eriochloa villosa
How it was run: as §2

Goosegrass = experiment: Test C pre-/postemergence test; assay type: in vivo, Eleusin indica
How it was run: as §2

eastern black nightshade = experiment: Test C pre-/postemergence test; assay type: in vivo, Solanum ptycanthum
How it was run: as §2

yellow nutsedge = experiment: Test C pre-/postemergence test; assay type: in vivo, Cyperus esculentus
How it was run: as §2

common ragweed = experiment: Test C pre-/postemergence test; assay type: in vivo, Ambrosia elation
How it was run: as §2

[1] = system: common (oilseed) sunflower; experiment: Test C pre-/postemergence test; assay type: in vivo, Helianthus annuus
How it was run: as §2

umbrella sedge = experiment: Test C flooded paddy test; assay type: in vivo, Cyperus difformis; settings: Flood
How it was run: (§3)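 In-water treatment: compound dosed into 3 cm flood over soil, water level unchanged throughout. Controls run alongside; visual assessment at day 13–15.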

duck salad = experiment: Test C flooded paddy test; assay type: in vivo, Heteranthera limosa; settings: Flood
How it was run: as §3

[2] = Postemergence, 125 g ai/ha, 0 is no effect, 100 is complete control
[3] = Postemergence, 500 g ai/ha, 0 is no effect, 100 is complete control
[4] = Preemergence, 125 g ai/ha, 0 no effect, 100 complete control
[5] = 31 g ai/ha, Preemergence, scale 0 to 100
[6] = 62 g ai/ha, preemergence, scale 0 (no effect) to 100 (complete control)
[7] = preemergence, 125 g ai/ha, scale 0 (no effect) to 100 (complete control)
[8] = 31 g ai/ha, scale 0 to 100 (0 no effect, 100 complete control)
[9] = 62 g ai/ha, scale 0 to 100, 0 no effect, 100 complete control, 13 to 15 days
[10] = 125 g ai/ha, scale 0 to 100, 0 no effect, 100 complete control, 13 to 15 days
[11] = 250 g ai/ha, scale 0 to 100 (0 no effect, 100 complete control)
[12] = 62 g ai/ha, Preemergence, scale 0 to 100
[13] = Preemergence, 31 g ai/ha, scale 0 to 100 (0 no effect, 100 complete control)
[14] = preemergence, 250 g ai/ha, scale 0 (no effect) to 100 (complete control)
[15] = 125 g ai/ha, preemergence, scale 0 (no effect) to 100 (complete control)
[16] = 250 g ai/ha, scale 0 to 100, 0 no effect, 100 complete control, 13 to 15 days

Cc1cc[n+]([O-])c(S(=O)(=O)C(C)c2c(C(F)(F)F)nn(C)c2Cl)c1 (racemic) [Compound 14]
Crabgrass, Large plant response rating (crabgrass; [2]): 40
Crabgrass, Large plant response rating (crabgrass; [3]): 70
Crabgrass, Large plant response rating (crabgrass; [4]): 90
Plant response rating, Crabgrass, Large (crabgrass; Preemergence, 500 g ai/ha): 100
Morningglory plant response rating (morningglory; [2]): 30
Morningglory plant response rating (morningglory; [3]): 50
Morningglory plant response rating (morningglory; [4]): 10
Plant response rating, Morningglory (morningglory; Preemergence, 500 g ai/ha): 100
Pigweed plant response rating (redroot pigweed; [2]): 0
Pigweed plant response rating (redroot pigweed; [3]): 10
Pigweed plant response rating (redroot pigweed; [4]): 100
Plant response rating, Pigweed (redroot pigweed; Preemergence, 500 g ai/ha): 100
Blackgrass plant response rating (blackgrass; [5]): 40
Blackgrass plant response rating (blackgrass; [6]): 80
Plant response rating (0 to 100), Blackgrass (blackgrass; Preemergence, 250 g ai/ha): 80
Foxtail, Green plant response rating (green foxtail; [5]): 90
Foxtail, Green plant response rating (green foxtail; [6]): 100
Plant response rating (0 to 100), Foxtail, Green (green foxtail; Preemergence, 250 g ai/ha): 100
Foxtail, Green plant response rating (green foxtail; [7]): 100
Ryegrass, Italian plant response rating (Italian ryegrass; [5]): 20
Ryegrass, Italian plant response rating (Italian ryegrass; [6]): 55
Plant response rating (0 to 100), Ryegrass, Italian (Italian ryegrass; Preemergence, 250 g ai/ha): 100
Ryegrass, Italian plant response rating (Italian ryegrass; [7]): 100
Wheat plant response rating (wheat; [6]): 20
Plant response rating (0 to 100), Wheat (wheat; Preemergence, 250 g ai/ha): 80
Wheat plant response rating (wheat; [7]): 50
Oat, Wild plant response rating (wild oat; [5]): 0
Oat, Wild plant response rating (wild oat; [6]): 0
Plant response rating (0 to 100), Oat, Wild (wild oat; Preemergence, 250 g ai/ha): 75
Oat, Wild plant response rating (wild oat; [7]): 10
Corn plant response rating (corn; [5]): 0
Corn plant response rating (corn; [6]): 20
Plant response rating (0 to 100), Corn (corn; Preemergence, 250 g ai/ha): 80
Corn plant response rating (corn; [7]): 60
Cupgrass, Woolly plant response rating (woolly cupgrass; [5]): 85
Cupgrass, Woolly plant response rating (woolly cupgrass; [6]): 85
Plant response rating (0 to 100), Cupgrass, Woolly (woolly cupgrass; Preemergence, 250 g ai/ha): 100
Cupgrass, Woolly plant response rating (woolly cupgrass; [7]): 90
Goosegrass plant response rating (Goosegrass; [5]): 100
Goosegrass plant response rating (Goosegrass; [6]): 100
Plant response rating (0 to 100), Goosegrass (Goosegrass; Preemergence, 250 g ai/ha): 100
Goosegrass plant response rating (Goosegrass; [7]): 100
Nightshade plant response rating (eastern black nightshade; [5]): 80
Nightshade plant response rating (eastern black nightshade; [6]): 100
Plant response rating (0 to 100), Nightshade (eastern black nightshade; Preemergence, 250 g ai/ha): 100
Nightshade plant response rating (eastern black nightshade; [7]): 100
Nutsedge, Yellow plant response rating (yellow nutsedge; [5]): 40
Nutsedge, Yellow plant response rating (yellow nutsedge; [6]): 70
Plant response rating (0 to 100), Nutsedge, Yellow (yellow nutsedge; Preemergence, 250 g ai/ha): 100
Nutsedge, Yellow plant response rating (yellow nutsedge; [7]): 98
Ragweed plant response rating (common ragweed; [5]): 0
Ragweed plant response rating (common ragweed; [6]): 85
Plant response rating (0 to 100), Ragweed (common ragweed; Preemergence, 250 g ai/ha): 100
Ragweed plant response rating (common ragweed; [7]): 85
Sunflower plant response rating [1, 6]: 85
Plant response rating (0 to 100), Sunflower ([1]; Preemergence, 250 g ai/ha): 100
Sunflower plant response rating [1, 7]: 98
Plant response rating, Sedge, Umbrella (umbrella sedge; [8]): 75
Plant response rating, Sedge, Umbrella (umbrella sedge; [9]): 85
Plant response rating, Sedge, Umbrella (umbrella sedge; [10]): 100
Plant response rating, Sedge, Umbrella (umbrella sedge; [11]): 100
Plant response rating, Ducksalad (duck salad; [8]): 40
Plant response rating, Ducksalad (duck salad; [9]): 50
Plant response rating, Ducksalad (duck salad; [10]): 80
Plant response rating, Ducksalad (duck salad; [11]): 100

Cn1nc(C(F)(F)F)c(C[S+]([O-])c2cc(Br)cc[n+]2[O-])c1Cl (racemic) [Compound 35]
Crabgrass, Large plant response rating (crabgrass; [2]): 50
Crabgrass, Large plant response rating (crabgrass; [3]): 80
Crabgrass, Large plant response rating (crabgrass; [4]): 60
Plant response rating, Crabgrass, Large (crabgrass; Preemergence, 500 g ai/ha): 80
Morningglory plant response rating (morningglory; [2]): 40
Morningglory plant response rating (morningglory; [3]): 70
Morningglory plant response rating (morningglory; [4]): 50
Plant response rating, Morningglory (morningglory; Preemergence, 500 g ai/ha): 80
Pigweed plant response rating (redroot pigweed; [2]): 60
Pigweed plant response rating (redroot pigweed; [3]): 80
Pigweed plant response rating (redroot pigweed; [4]): 100
Plant response rating, Pigweed (redroot pigweed; Preemergence, 500 g ai/ha): 100
Blackgrass plant response rating (blackgrass; [12]): 0
Plant response rating, Blackgrass (blackgrass; [13]): 0
Blackgrass plant response rating (blackgrass; [14]): 50
Foxtail, Green plant response rating (green foxtail; [12]): 80
Foxtail, Green plant response rating (green foxtail; [15]): 100
Plant response rating, Foxtail, Green (green foxtail; [13]): 0
Foxtail, Green plant response rating (green foxtail; [14]): 100
Ryegrass, Italian plant response rating (Italian ryegrass; [12]): 20
Ryegrass, Italian plant response rating (Italian ryegrass; [15]): 20
Plant response rating, Ryegrass, Italian (Italian ryegrass; [13]): 10
Ryegrass, Italian plant response rating (Italian ryegrass; [14]): 20
Wheat plant response rating (wheat; [12]): 25
Wheat plant response rating (wheat; [15]): 25
Plant response rating, Wheat (wheat; [13]): 0
Wheat plant response rating (wheat; [14]): 25
Oat, Wild plant response rating (wild oat; [12]): 45
Oat, Wild plant response rating (wild oat; [15]): 80
Plant response rating, Oat, Wild (wild oat; [13]): 10
Oat, Wild plant response rating (wild oat; [14]): 90
Corn plant response rating (corn; [12]): 10
Corn plant response rating (corn; [15]): 30
Plant response rating, Corn (corn; [13]): 10
Corn plant response rating (corn; [14]): 65
Cupgrass, Woolly plant response rating (woolly cupgrass; [12]): 80
Cupgrass, Woolly plant response rating (woolly cupgrass; [15]): 85
Plant response rating, Cupgrass, Woolly (woolly cupgrass; [13]): 0
Cupgrass, Woolly plant response rating (woolly cupgrass; [14]): 100
Goosegrass plant response rating (Goosegrass; [12]): 100
Goosegrass plant response rating (Goosegrass; [15]): 100
Plant response rating, Goosegrass (Goosegrass; [13]): 80
Goosegrass plant response rating (Goosegrass; [14]): 100
Nightshade plant response rating (eastern black nightshade; [12]): 100
Nightshade plant response rating (eastern black nightshade; [15]): 100
Plant response rating, Nightshade (eastern black nightshade; [13]): 0
Nightshade plant response rating (eastern black nightshade; [14]): 100
Nutsedge, Yellow plant response rating (yellow nutsedge; [12]): 60
Nutsedge, Yellow plant response rating (yellow nutsedge; [15]): 90
Plant response rating, Nutsedge, Yellow (yellow nutsedge; [13]): 0
Nutsedge, Yellow plant response rating (yellow nutsedge; [14]): 100
Ragweed plant response rating (common ragweed; [12]): 0
Ragweed plant response rating (common ragweed; [15]): 50
Plant response rating, Ragweed (common ragweed; [13]): 0
Ragweed plant response rating (common ragweed; [14]): 85
Sunflower plant response rating [1, 12]: 0
Sunflower plant response rating [1, 15]: 0
Plant response rating, Sunflower [1, 13]: 0
Sunflower plant response rating [1, 14]: 30
Plant response rating, Sedge, Umbrella (umbrella sedge; [8]): 80
Plant response rating, Sedge, Umbrella (umbrella sedge; [9]): 90
Plant response rating, Sedge, Umbrella (umbrella sedge; [10]): 95
Plant response rating, Sedge, Umbrella (umbrella sedge; [16]): 95
Plant response rating, Ducksalad (duck salad; [8]): 60
Plant response rating, Ducksalad (duck salad; [9]): 60
Plant response rating, Ducksalad (duck salad; [10]): 85
Plant response rating, Ducksalad (duck salad; [16]): 95
